Data set [1] has as its system stage III ovarian cancer. The note with it: ip, patients with stage III ovarian cancer and residual tumor masses of 2 cm or less; cited from earlier work.
Data set [2] concerns L1210 tumor cells. The data set can be described thus: In vivo antitumor activity in Murine L1210 tumor model (ascitic L1210 leukemia), ip administration. The note with it: L1210, B6D2F1 mice. As for the experimental part: The test articles and materials are presented below in Table 5.
Day 0, inoculate 6 groups of 5 male mice and 1 group of 9 male control animals with one million viable L1210 cells per mouse by ip injection. • 2. […] Each dose level represents one group of five mice. […] Control group contains 9 untreated mice.
3. Mice were monitored daily for deaths and or signs of clinical illness. The date of euthanasia was recorded for the purpose of experimental end-points. A total of 39 mice divided into 7 groups were studied. At the end point survival was assessed and expressed as % T/C (percent median survival of treated group: median survival of control group.)

Data set [3] is described as follows: Pharmacokinetics and organ distribution (Part II), platinum by ICP-MS. The class given is in vivo, mice. The conditions noted are these: ip. As for the experimental part:
Sixty ICR mice (female, 7 weeks old) were divided into 4 groups. […] At each designed time point, three to four mice were anaesthetized with 70 mg/kg of Nembutal ip (e.g., 3, 20, and 40 min, and 2, 8, 24, 48, and 72 h). […] Organs including duodenum, kidney, liver, lung, and spleen were resected from the mice. The blood and organ samples were homogenized in distilled water (4-fold of the sample weight) and digested with nitric acid. The platinum concentration in each sample was measured by Inductively Coupled Plasma-Mass Spectrometer (ICP-MS). The pharmacokinetics profiles (FIGS. 3-7, all Y-axes are concentration of μg platinum in one gram of tissue or fluid per mg of injected dose) and parameters (Tables 3 and 4) of each formulation were simulated and calculated.

In data set [4] the test system is L1210 cells. The data set can be described thus: Survival of mice with implanted L1210 tumor cells: cyclic temperature vs non cyclic temperature cisplatin liposomes. In kind it is in vivo. The note with it: single bolus ip 6 mg/kg on day 5, L1210, DBA/2 mice. On the procedure: DPPC (3.0 g) and cholesterol (1.2 g) were co-dissolved in 20 mL of ethanol. • 2.
Female DBA/2 mice (Charles Rivers) were used. Thirty (30) mice were injected with 2×10^6 L1210 cells ip on Day 0. On day 1, the mice were weighed and randomized into 3 groups of 10 mice. […] Survival was monitored. Mice were weighed daily after day 10. Mice that lost 20% or greater of their starting weight were euthanized by CO2 inhalation. The date of their death was recorded on data sheets. Median survival was calculated by Prism GraphPad.

The subject of data set [5] is mice. In words: Maximum tolerated dose (MTD), single bolus ip injection. The class given is in vivo.
Setting [6] is: ip dose 3 mg/kg (1 mg/kg on days 3, 7, 11).
Where [7] appears, read: ip dose 4.5 mg/kg ([…] on days 3, 7, 11).

The term MTD denotes the highest dose tested that stayed within the study's limit of toxicity. For the compound `N.N.[Cl][Pt][Cl]` [Cisplatin, cis-diamine-dichloroplatinum (II)], the “survival compared with iv cisplatin” value in data set [1] is “significantly improves survival”. In addition, in data set [2] (setting [6]), the “% T/C” value worked out at 196% and the Median survival worked out at 26.5 days. Besides, in data set [2] (setting [7]), the “% T/C” value is listed as 218% and the Median survival was determined as 29.5 days. Moreover, the “Circulation AUC” value in data set [3] (blood, normalised to injected dose) was found to be 7.08 µg·h/g/µg. Also, the “Organ AUC, Duodenum” value in data set [3] (duodenum) stood at 8.32 µg·h/g/µg. Also, the “Organ AUC, Heart” value in data set [3] (heart) was 2.67 µg·h/g/µg. Also, in data set [3] (kidney), the “Organ AUC, Kidney” value is 8.61 µg·h/g/µg and the “Organ Cmax, Kidney” value was determined as 0.46 µg/g/µg. In addition, in data set [3] (liver), the “Organ AUC, Liver” value turned out to be 28.99 µg·h/g/µg and the “Organ Cmax, Liver” value was found to be 0.71 µg/g/µg. Also, in data set [3] (lung), the “Organ AUC, Lung” value stood at 29.00 µg·h/g/µg and the “Organ Cmax, Lung” value stood at 1.61 µg/g/µg. For the same compound, the “Organ AUC, Spleen” value in data set [3] (spleen) stood at 10.45 µg·h/g/µg. This compound also showed a Median survival in data set [4] of 19.5 days. This compound also displayed an MTD in data set [5] of 9 mg/kg.

The values above are taken from US20060246124A1, “Methods of treating cancer with lipid-based platinum compound formulations administered intraperitoneally” (priority 2004, published 2006).
